Measured values reported in US20050009840A1 (SUGEN, INC., priority 2003, published 2005).

What follows are molecules tested against T1, HGFR (Homo sapiens, UniProt P08581) (assay: HGFR continuous-coupled spectrophotometric assay). Settings: at 1 pM; Table 6, library procedure 41; read-out: % Inhibition (percent c-MET inhibition).
T1 construct: purchased Upstate 14-526
T1 sequence (P08581 974-1390 limits assumed): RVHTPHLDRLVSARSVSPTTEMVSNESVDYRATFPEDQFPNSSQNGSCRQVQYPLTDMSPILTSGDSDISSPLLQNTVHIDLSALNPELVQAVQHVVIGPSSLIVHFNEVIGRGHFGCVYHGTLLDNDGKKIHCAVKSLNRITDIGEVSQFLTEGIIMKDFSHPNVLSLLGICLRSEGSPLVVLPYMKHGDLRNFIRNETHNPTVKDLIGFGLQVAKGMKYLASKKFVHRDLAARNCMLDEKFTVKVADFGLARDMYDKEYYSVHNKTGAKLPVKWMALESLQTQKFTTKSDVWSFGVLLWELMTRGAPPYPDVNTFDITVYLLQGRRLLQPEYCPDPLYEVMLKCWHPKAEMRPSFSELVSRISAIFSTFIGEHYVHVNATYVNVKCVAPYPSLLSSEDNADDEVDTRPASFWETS
Assay type: biochemical
In the case of Nc1ncc(C(=O)NCCCN2CCOCC2)cc1OCc1c(Cl)cccc1Cl [Example L-177], the inhibition at 1 pM is reported as 26%.
Nc1ncc(C(=O)NCc2ccc(S(N)(=O)=O)cc2)cc1OCc1c(Cl)cccc1Cl [Example L-178] showed an inhibition at 1 pM of 30%.
Work on CN1CCN(CCCNC(=O)c2cnc(N)c(OCc3c(Cl)cccc3Cl)c2)CC1 [Example L-179] yielded an inhibition at 1 pM of 24%.
With Nc1ncc(C(=O)NCCCO)cc1OCc1c(Cl)cccc1Cl [Example L-180] the inhibition at 1 pM was 26%.
Work on Nc1ncc(C(=O)NCCN2CCOCC2)cc1OCc1c(Cl)cccc1Cl [Example L-181] yielded an inhibition at 1 pM of 31%.
Nc1ncc(C(=O)NC(CO)Cc2ccc(Cl)cc2)cc1OCc1c(Cl)cccc1Cl [Example L-182] showed an inhibition at 1 pM of 27%.
With COc1ccccc1CNC(=O)c1cnc(N)c(OCc2c(Cl)cccc2Cl)c1 [Example L-183] the inhibition at 1 pM was 32%.
With Nc1ncc(C(=O)NC2CCN(Cc3ccccc3)C2)cc1OCc1c(Cl)cccc1Cl [Example L-184] the inhibition at 1 pM was 27%.
For Nc1ncc(C(=O)NCCc2c[nH]cn2)cc1OCc1c(Cl)cccc1Cl [Example L-185], the inhibition at 1 pM was 29%.
Molecule CN(C)c1ccc(CNC(=O)c2cnc(N)c(OCc3c(Cl)cccc3Cl)c2)cc1 [Example L-186] has an inhibition at 1 pM of 30%.
Work on Nc1ncc(C(=O)NCCc2ccc(S(N)(=O)=O)cc2)cc1OCc1c(Cl)cccc1Cl [Example L-187] yielded an inhibition at 1 pM of 30%.
For NC(=O)C1CCCN(C(=O)c2cnc(N)c(OCc3c(Cl)cccc3Cl)c2)C1 [Example L-188], the inhibition at 1 pM was 39%.
For Nc1ncc(C(=O)NC2CCSC2=O)cc1OCc1c(Cl)cccc1Cl [Example L-189], the inhibition at 1 pM was 35%.
Work on CC(=O)NCCNC(=O)c1cnc(N)c(OCc2c(Cl)cccc2Cl)c1 [Example L-190] yielded an inhibition at 1 pM of 35%.
Work on CN(C)CC(C)(C)CNC(=O)c1cnc(N)c(OCc2c(Cl)cccc2Cl)c1 [Example L-191] yielded an inhibition at 1 pM of 38%.
N#CC1(c2ccccc2)CCN(C(=O)c2cnc(N)c(OCc3c(Cl)cccc3Cl)c2)CC1 [Example L-193] gave an inhibition at 1 pM of 37%.
In the case of Nc1ncc(C(=O)N2CCC(O)CC2)cc1OCc1c(Cl)cccc1Cl [Example L-194], the inhibition at 1 pM is reported as 35%.
Nc1ncc(C(=O)NCc2ccc(O)cc2)cc1OCc1c(Cl)cccc1Cl [Example L-195] was tested, and the inhibition at 1 pM was 37%.
For Nc1ncc(C(=O)N2CCN(c3ccccn3)CC2)cc1OCc1c(Cl)cccc1Cl [Example L-196], the inhibition at 1 pM was 34%.
For Nc1ncc(C(=O)NCc2ccccc2Br)cc1OCc1c(Cl)cccc1Cl [Example L-197], the inhibition at 1 pM was 36%.
COc1ccc(CNC(=O)c2cnc(N)c(OCc3c(Cl)cccc3Cl)c2)c(OC)c1 [Example L-198] was tested, and the inhibition at 1 pM was 59%.
For Nc1ncc(C(=O)NCCc2ccccc2F)cc1OCc1c(Cl)cccc1Cl [Example L-199], the inhibition at 1 pM was 33%.
In the case of Nc1ncc(C(=O)NCc2ccccc2OC(F)(F)F)cc1OCc1c(Cl)cccc1Cl [Example L-200], the inhibition at 1 pM is reported as 31%.
Work on CC(C)NC(=O)CN1CCN(C(=O)c2cnc(N)c(OCc3c(Cl)cccc3Cl)c2)CC1 [Example L-201] yielded an inhibition at 1 pM of 30%.

Same assay, conditions: at 50 nM; Table 5, library procedure 40; read-out: % inhibition (percent c-MET inhibition)
In the case of CCN(C)C(=O)c1ccc(-c2cnc(N)c(OC(C)c3c(Cl)ccc(F)c3Cl)c2)cc1 [Example L-126], the inhibition at 0.05 µM is reported as 52%.
In the case of CCCN1CCN(C(=O)c2ccc(-c3cnc(N)c(OC(C)c4c(Cl)ccc(F)c4Cl)c3)cc2)CC1 [Example L-129], the inhibition at 0.05 µM is reported as 82%.
CC(Oc1cc(-c2ccc(C(=O)N(C)C3CCCC3)cc2)cnc1N)c1c(Cl)ccc(F)c1Cl [Example L-130] showed an inhibition at 0.05 µM of 60%.
With Cc1ccnc(NC(=O)c2ccc(-c3cnc(N)c(OC(C)c4c(Cl)ccc(F)c4Cl)c3)cc2)c1 [Example L-131] the inhibition at 0.05 µM was 61%.
For CC(Oc1cc(-c2ccc(C(=O)NCCc3cccnc3)cc2)cnc1N)c1c(Cl)ccc(F)c1Cl [Example L-133], the inhibition at 0.05 µM was 68%.
Work on CC(Oc1cc(-c2ccc(C(=O)N3CCN(C(C)C)CC3)cc2)cnc1N)c1c(Cl)ccc(F)c1Cl [Example L-134] yielded an inhibition at 0.05 µM of 76%.
Work on COCCN1CCN(C(=O)c2ccc(-c3cnc(N)c(OC(C)c4c(Cl)ccc(F)c4Cl)c3)cc2)CC1 [Example L-135] yielded an inhibition at 0.05 µM of 76%.
CC(Oc1cc(-c2ccc(C(=O)N3CCC(C(=O)c4ccccc4)CC3)cc2)cnc1N)c1c(Cl)ccc(F)c1Cl [Example L-136] was tested, and the inhibition at 0.05 µM was 61%.
CCN(CC)CCN1CCN(C(=O)c2ccc(-c3cnc(N)c(OC(C)c4c(Cl)ccc(F)c4Cl)c3)cc2)CC1 [Example L-137] showed an inhibition at 0.05 µM of 78%.
For CC(CN(C)C)NC(=O)c1ccc(-c2cnc(N)c(OC(C)c3c(Cl)ccc(F)c3Cl)c2)cc1 [Example L-138], the inhibition at 0.05 µM was 83%.
In the case of CC1CCC(NC(=O)c2ccc(-c3cnc(N)c(OC(C)c4c(Cl)ccc(F)c4Cl)c3)cc2)CC1 [Example L-139], the inhibition at 0.05 µM is reported as 60%.
In the case of CC(C)OCCNC(=O)c1ccc(-c2cnc(N)c(OC(C)c3c(Cl)ccc(F)c3Cl)c2)cc1 [Example L-140], the inhibition at 0.05 µM is reported as 141%.
CC(Oc1cc(-c2ccc(C(=O)N3CCC(CO)CC3)cc2)cnc1N)c1c(Cl)ccc(F)c1Cl [Example L-141] gave an inhibition at 0.05 µM of 79%.
Molecule CC(Oc1cc(-c2ccc(C(=O)N3CCC(CCO)CC3)cc2)cnc1N)c1c(Cl)ccc(F)c1Cl [Example L-142] has an inhibition at 0.05 µM of 72%.
CC(C)CN(C)C(=O)c1ccc(-c2cnc(N)c(OC(C)c3c(Cl)ccc(F)c3Cl)c2)cc1 [Example L-143] gave an inhibition at 0.05 µM of 59%.
Cc1cccc(CN(C)C(=O)c2ccc(-c3cnc(N)c(OC(C)c4c(Cl)ccc(F)c4Cl)c3)cc2)n1 [Example L-144] was tested, and the inhibition at 0.05 µM was 71%.
In the case of COC(=O)CN(C)C(=O)c1ccc(-c2cnc(N)c(OC(C)c3c(Cl)ccc(F)c3Cl)c2)cc1 [Example L-145], the inhibition at 0.05 µM is reported as 77%.
With CC(Oc1cc(-c2ccc(C(=O)N3CCN(CC(=O)N(C)C)CC3)cc2)cnc1N)c1c(Cl)ccc(F)c1Cl [Example L-146] the inhibition at 0.05 µM was 89%.
For CC(Oc1cc(-c2ccc(C(=O)N3CCN(C4CCN(C)CC4)CC3)cc2)cnc1N)c1c(Cl)ccc(F)c1Cl [Example L-147], the inhibition at 0.05 µM was 96%.
For CC(Oc1cc(-c2ccc(C(=O)NCc3ccc(C(F)(F)F)nc3)cc2)cnc1N)c1c(Cl)ccc(F)c1Cl [Example L-148], the inhibition at 0.05 µM was 62%.
With CC(Oc1cc(-c2ccc(C(=O)NCCCc3c[nH]nc3O)cc2)cnc1N)c1c(Cl)ccc(F)c1Cl [Example L-150] the inhibition at 0.05 µM was 81%.
CC(Oc1cc(-c2ccc(C(=O)N3CCC(Oc4ccccc4)CC3)cc2)cnc1N)c1c(Cl)ccc(F)c1Cl [Example L-151] showed an inhibition at 0.05 µM of 58%.
Work on CC(Oc1cc(-c2ccc(C(=O)N3CCS(=O)(=O)CC3)cc2)cnc1N)c1c(Cl)ccc(F)c1Cl [Example L-153] yielded an inhibition at 0.05 µM of 95%.
With CC(Oc1cc(-c2ccc(C(=O)NCCN3[C@H](C)CCC[C@@H]3C)cc2)cnc1N)c1c(Cl)ccc(F)c1Cl (stereo partly drawn) [Example L-154] the inhibition at 0.05 µM was 77%.
In the case of CC(Oc1cc(-c2ccc(C(=O)NCC3(N(C)C)CCOCC3)cc2)cnc1N)c1c(Cl)ccc(F)c1Cl [Example L-155], the inhibition at 0.05 µM is reported as 66%.
CC(Oc1cc(-c2ccc(C(=O)NC3CCOCC3)cc2)cnc1N)c1c(Cl)ccc(F)c1Cl [Example L-156] was tested, and the inhibition at 0.05 µM was 73%.
C#CCCN1CCN(C(=O)c2ccc(-c3cnc(N)c(OC(C)c4c(Cl)ccc(F)c4Cl)c3)cc2)CC1 [Example L-157] showed an inhibition at 0.05 µM of 77%.
With CC(Oc1cc(-c2ccc(C(=O)Nc3ccc(-n4ccnc4)cc3)cc2)cnc1N)c1c(Cl)ccc(F)c1Cl [Example L-158] the inhibition at 0.05 µM was 63%.
Molecule CC(Oc1cc(-c2ccc(C(=O)NCC(c3cccnc3)N(C)C)cc2)cnc1N)c1c(Cl)ccc(F)c1Cl [Example L-159] has an inhibition at 0.05 µM of 78%.
In the case of CC(Oc1cc(-c2ccc(C(=O)N3CCC(c4cccnc4)C3)cc2)cnc1N)c1c(Cl)ccc(F)c1Cl [Example L-161], the inhibition at 0.05 µM is reported as 79%.
In the case of CC(Oc1cc(-c2ccc(C(=O)NCCC3CCOCC3)cc2)cnc1N)c1c(Cl)ccc(F)c1Cl [Example L-162], the inhibition at 0.05 µM is reported as 66%.
In the case of CC(Oc1cc(-c2ccc(C(=O)N3CCN(CCS(C)(=O)=O)CC3)cc2)cnc1N)c1c(Cl)ccc(F)c1Cl [Example L-163], the inhibition at 0.05 µM is reported as 83%.
Molecule CC(Oc1cc(-c2ccc(C(=O)NC(CO)c3cccnc3)cc2)cnc1N)c1c(Cl)ccc(F)c1Cl [Example L-164] has an inhibition at 0.05 µM of 61%.
CC(Oc1cc(-c2ccc(C(=O)N3CCN(CC4CCN(C)CC4)CC3)cc2)cnc1N)c1c(Cl)ccc(F)c1Cl [Example L-165] showed an inhibition at 0.05 µM of 88%.
For CC(Oc1cc(-c2ccc(C(=O)NCCc3nc(-c4ccncc4)c[nH]3)cc2)cnc1N)c1c(Cl)ccc(F)c1Cl [Example L-166], the inhibition at 0.05 µM was 67%.
CCNC(=O)c1ccc(-c2cnc(N)c(OC(C)c3c(Cl)ccc(F)c3Cl)c2)cc1 [Example L-167] was tested, and the inhibition at 0.05 µM was 66%.
With CC(Oc1cc(-c2ccc(C(=O)N3CCNC(=O)C3)cc2)cnc1N)c1c(Cl)ccc(F)c1Cl [Example L-168] the inhibition at 0.05 µM was 90%.
In the case of COC1CCN(C(=O)c2ccc(-c3cnc(N)c(OC(C)c4c(Cl)ccc(F)c4Cl)c3)cc2)CC1 [Example L-169], the inhibition at 0.05 µM is reported as 79%.
In the case of CC(Oc1cc(-c2ccc(C(=O)NCCCN(C)C3CCCCC3)cc2)cnc1N)c1c(Cl)ccc(F)c1Cl [Example L-170], the inhibition at 0.05 µM is reported as 77%.
In the case of CC(Oc1cc(-c2ccc(C(=O)NCCN(C)C3CCCCC3)cc2)cnc1N)c1c(Cl)ccc(F)c1Cl [Example L-171], the inhibition at 0.05 µM is reported as 69%.
In the case of CC(Oc1cc(-c2ccc(C(=O)N3CCC(CO)C3)cc2)cnc1N)c1c(Cl)ccc(F)c1Cl [Example L-172], the inhibition at 0.05 µM is reported as 79%.
CC(Oc1cc(-c2ccc(C(=O)NCC3CCOCC3)cc2)cnc1N)c1c(Cl)ccc(F)c1Cl [Example L-173] was tested, and the inhibition at 0.05 µM was 63%.
C[C@H](Oc1cc(-c2ccc(C(=O)N[C@H]3CC[C@H](CO)CC3)cc2)cnc1N)c1c(Cl)ccc(F)c1Cl [Example L-174] gave an inhibition at 0.05 µM of 68%.
With CC(Oc1cc(-c2ccc(C(=O)N3CCC(COCC4CC4)CC3)cc2)cnc1N)c1c(Cl)ccc(F)c1Cl [Example L-175] the inhibition at 0.05 µM was 60%.
Work on Cc1noc([C@H]2CC[C@H](CNC(=O)c3ccc(-c4cnc(N)c(O[C@@H](C)c5c(Cl)ccc(F)c5Cl)c4)cc3)CC2)n1 [Example L-176] yielded an inhibition at 0.05 µM of 51%.

Same assay, conditions: read-out: % Inhibition (percent c-MET inhibition)
In the case of CCC(=O)C(c1ccccc1)C1CCN(C(=O)c2cnc(N)c(OCc3c(Cl)cccc3Cl)c2)CC1 [Example L-192], the inhibition at 1 pM is reported as 44%.
